Source: patent US5294611A, “Angiotensin II receptor blocking 2,3,6 substituted quinazolinones” (American Cyanamid Company, priority 1993, dated 1994)

Molecular target: T1, Angiotensin II Receptor (Bos taurus, UniProt P25104)
T1 construct: The brownish tissue forming the adrenal cortex is scraped off and finely minced with scissors before homogenization; tissue local slaughter house (maxwell-Cohen); host or cells: beef adrenal cortex, 100,000 x g microsomal membranes
T1 sequence (P25104 1-359): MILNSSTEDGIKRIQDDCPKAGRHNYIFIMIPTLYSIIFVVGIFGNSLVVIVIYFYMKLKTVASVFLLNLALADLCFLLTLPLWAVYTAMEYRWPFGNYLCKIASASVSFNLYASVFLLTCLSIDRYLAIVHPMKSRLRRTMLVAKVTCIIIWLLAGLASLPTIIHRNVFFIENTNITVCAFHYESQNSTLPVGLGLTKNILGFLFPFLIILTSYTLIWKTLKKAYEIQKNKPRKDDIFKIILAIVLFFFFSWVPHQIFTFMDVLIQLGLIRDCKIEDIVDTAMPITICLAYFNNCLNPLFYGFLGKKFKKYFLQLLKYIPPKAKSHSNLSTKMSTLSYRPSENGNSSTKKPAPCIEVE
Test: Receptor Binding Assay: displacement of [^125 I](Sar^1,Ile^8)AngII from adrenal cortex microsomal membranes
Design: species or system beef (bovine adrenals)
Description: Beef adrenals are obtained from a local slaughter house (maxwell-Cohen). [^125 I](Sar^1,Ile^8)AngII, S.A. 2200 Ci/mmole, is purchased from Dupont (NEN®, Boston, Mass.). All unlabeled AngII analogs, Dimethylsulfoxide (DMSO), nucleotides, bovine serum albumin (BSA) are purchased from Sigma Chemical Co., St. Louis, Mo. U.S.A.
Approximately sixteen (16) to twenty (20) beef adrenal glands are processed as follows: fresh adrenal glands received on crushed ice are cleaned of fatty tissues and the tough membranes encapsulating the glands are removed and discarded. The brownish tissue forming the adrenal cortex is scraped off and finely minced with scissors before homogenization. Care is taken to avoid contamination with medullary tissue during dissection. The scraped cortices are suspended in twenty volumes of an ice-cold buffer medium consisting of 10 mM Tris.HCl (pH 7.4 at 22° C.) and containing 1.0 mM EDTA and 0.2M sucrose. Unless otherwise indicated, all subsequent operations are done at 4° C. […] The homogenate is centrifuged first at low speed (3,000× g) for 10 min. The resulting pellet is discarded and the supernatant fluid recentrifuged at 10,000× g for 15 minutes to give a P2 pellet. This P2 pellet is discarded and the liquid phase is carefully decanted off in clean centrifuge tubes and recentrifuged at high speed (100,000× g) for 60 min. The translucent final pellet is harvested and combined in a small volume (20-50.0 ml) of 50.0 mM Tris.HCl buffer, pH 7.2. A 100 ul aliquot is withdrawn and the protein content of the preparation is determined by the Lowry's method (Lowry, O. H., Rosebrough, N. F., Parr, A. L. and Randall, R. J., Protein measurement with Folin phenol reagent. J. Biol. Chem., 48, 265-275; 1951). The pelleted membrane is reconstituted in 50.0 mM Tris.HCl buffer containing 0.1 mM of phenylmethylsulfonyl fluoride (PMSF) to give approximately a protein concentration of 2.5 mg per ml of tissue suspension. The membrane preparation is finally aliquoted in 1.0 ml volumes and stored at -70° C. until use in the binding assays.
The binding of [^125 I](Sar^1,Ile^8)AngII to microsomal membranes is initiated by the addition of reconstituted membranes (1:10 vols.) in freshly made 50.0 mM Tris.HCl buffer, pH 7.4 containing 0.25% heat inactivated bovine serum albumin (BSA): 80 ul membrane protein (10 to 20 ug/assay) to wells already containing 100 ul of incubation buffer (as described above) and 20 ul [^125 I](Sar^1,ILE^8)AngII (Specific Activity, 2200 Ci/mmole). Non-specific binding is measured in the presence of 1.0 uM unlabeled (Sar^1,ILE^8)AngII, added in 20 ul volume. […] In competition studies, experimental compounds are diluted in dimethylsulfoxide (DMSO) and added in 20 ul to wells before the introduction of tissue membranes. […] Assays are performed in triplicate. The wells are left undisturbed for 60 min. at room temperature. Following incubation, all wells are harvested at once with a Brandel® Harvester especially designed for a 96 well plate (Brandel® Biomedical Research & Development Labs. Inc., Gaithersburg, Md., U.S.A.). The filter discs are washed with 10×1.0 ml of cold 0.9% NaCl to remove unbound ligand. […] This method is routinely used. The filters are removed from the filter grid and counted in a Parkard® Cobra Gamma Counter for 1 min. (Packard Instrument Co., Downers Grove, Ill., U.S.A.). The binding data are analyzed by the non-linear interactive "LUNDON-1" program (LUNDON SOFTWARE Inc., Cleveland, Ohio U.S.A.).

**Q.** Which IC50 does the source give for CCCCc1nc2ccc([C@H]3[C@@H]4C5CCC(C5)[C@@H]4ON3C)cc2c(=O)n1Cc1ccc(-c2ccccc2-c2nnn[nH]2)cc1 (stereo partly drawn) [Example 51] here?
**A.** 150 nM

**Q.** Which IC50 does the source give for CCCCc1nc2ccc([C@H]3[C@@H]4C(=O)OC[C@@H]4ON3C)cc2c(=O)n1Cc1ccc(-c2ccccc2-c2nnn[nH]2)cc1 (relative stereo) [Example 53] here?
**A.** 71 nM

**Q.** For CCCCc1nc2ccc([C@@H]3[C@H]4C(=O)CCC[C@H]4ON3C)cc2c(=O)n1Cc1ccc(-c2ccccc2-c2nnn[nH]2)cc1 (relative stereo) [Example 49], which IC50 is on record?
**A.** 880 nM

**Q.** How did the IC50 turn out when CCCCc1nc2ccc([C@H]3[C@@H]4C(=O)CC[C@@H]4ON3C)cc2c(=O)n1Cc1ccc(-c2ccccc2-c2nnn[nH]2)cc1 (relative stereo) [Example 48] was run?
**A.** 57 nM

**Q.** How did the IC50 turn out when CCCCc1nc2ccc([C@H]3[C@@H]4C(=O)CC[C@@H]4ON3Cc3ccccc3)cc2c(=O)n1Cc1ccc(-c2ccccc2-c2nnn[nH]2)cc1 (relative stereo) [Example 55] was run?
**A.** 78 nM

**Q.** For CCCCc1nc2ccc([C@H]3[C@@H]4C(=O)OC[C@@H]4ON3Cc3ccccc3)cc2c(=O)n1Cc1ccc(-c2ccccc2-c2nnn[nH]2)cc1 (relative stereo) [Example 57], which IC50 is on record?
**A.** 180 nM
